Assay results published in ChEMBL document CHEMBL1130048, “Biological and conformational examination of stereochemical modifications using the template melanotropin peptide, Ac-Nle-c[Asp-His-Phe-Arg-Trp-Ala-Lys]-NH2, on human melanocortin receptors” (J Med Chem, 1997).

Assays:
[1] = biological target: T1, Melanocyte-stimulating hormone receptor (Homo sapiens, UniProt Q01726); assay: Effective concentration for intracellular cAMP accumulation in L-cells expressing Melanocortin 1 receptor; assay type: functional, cell-based
T1 sequence (Q01726 whole entry): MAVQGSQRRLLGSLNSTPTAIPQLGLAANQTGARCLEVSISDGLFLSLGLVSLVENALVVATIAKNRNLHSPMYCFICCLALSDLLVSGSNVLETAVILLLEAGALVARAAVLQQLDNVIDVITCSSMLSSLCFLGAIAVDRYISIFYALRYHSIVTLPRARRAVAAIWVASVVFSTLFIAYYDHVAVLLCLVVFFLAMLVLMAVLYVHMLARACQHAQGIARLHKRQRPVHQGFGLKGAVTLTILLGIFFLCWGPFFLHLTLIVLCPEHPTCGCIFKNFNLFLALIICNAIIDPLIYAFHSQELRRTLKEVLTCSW

[2] = biological target: T1, Melanocyte-stimulating hormone receptor; assay: Inhibitory concentration against human Melanocortin 1 receptor (hMC1R)
Melanocortin receptor 4 [3] = biological target: T2, Melanocortin receptor 4 (Homo sapiens, UniProt P32245); assay: Effective concentration for intracellular cAMP accumulation in L-cells expressing Melanocortin 4 receptor; assay type: functional, cell-based
T2 sequence (P32245 whole entry): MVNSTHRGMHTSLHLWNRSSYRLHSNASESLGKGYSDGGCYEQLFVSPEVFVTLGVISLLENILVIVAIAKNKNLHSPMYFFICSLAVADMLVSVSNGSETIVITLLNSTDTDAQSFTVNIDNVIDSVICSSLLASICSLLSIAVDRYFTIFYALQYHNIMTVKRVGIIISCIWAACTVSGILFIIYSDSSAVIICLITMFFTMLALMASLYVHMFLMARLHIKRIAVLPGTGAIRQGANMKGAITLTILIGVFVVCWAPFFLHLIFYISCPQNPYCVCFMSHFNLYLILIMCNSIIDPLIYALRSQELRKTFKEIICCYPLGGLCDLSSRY

Melanocortin receptor 5 = Melanocortin receptor 5 (Homo sapiens, UniProt P33032); assay: Inhibitory concentration against human Melanocortin 5 receptor (hMC5R)
Sequence of Melanocortin receptor 5 (P33032 whole entry): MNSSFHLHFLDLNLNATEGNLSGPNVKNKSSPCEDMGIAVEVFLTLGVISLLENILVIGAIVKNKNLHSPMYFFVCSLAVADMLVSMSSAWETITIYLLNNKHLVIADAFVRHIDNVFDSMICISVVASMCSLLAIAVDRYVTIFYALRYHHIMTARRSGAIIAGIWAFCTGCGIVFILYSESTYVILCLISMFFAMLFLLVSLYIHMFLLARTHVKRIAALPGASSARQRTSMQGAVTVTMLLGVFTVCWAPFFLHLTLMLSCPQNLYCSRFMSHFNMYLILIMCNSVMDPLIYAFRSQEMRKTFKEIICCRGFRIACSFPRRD

Melanocortin receptor 3 [4] = biological target: T3, Melanocortin receptor 3 (Homo sapiens, UniProt P41968); assay: Effective concentration that was able to generate 50% maximal intracellular cAMP in L-cells transfected with Melanocortin 3 receptor; assay type: functional, cell-based
T3 sequence (P41968 whole entry): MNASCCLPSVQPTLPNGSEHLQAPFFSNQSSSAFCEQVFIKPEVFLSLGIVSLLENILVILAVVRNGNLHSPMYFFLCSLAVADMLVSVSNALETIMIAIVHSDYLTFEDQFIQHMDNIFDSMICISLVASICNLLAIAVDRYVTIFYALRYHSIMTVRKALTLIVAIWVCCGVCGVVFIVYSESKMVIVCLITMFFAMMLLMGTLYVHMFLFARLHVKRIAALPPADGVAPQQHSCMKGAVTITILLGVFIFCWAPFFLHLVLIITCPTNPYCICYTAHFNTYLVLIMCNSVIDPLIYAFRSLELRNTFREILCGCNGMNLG

Melanocortin receptor 3 [5] = biological target: T3, Melanocortin receptor 3; assay: Inhibitory concentration against human Melanocortin 3 receptor (hMC3R)
Melanocortin receptor 4 [6] = biological target: T2, Melanocortin receptor 4; assay: Inhibitory concentration against human Melanocortin 4 receptor (hMC4R)

Row | EC50 [1] [nM] | IC50 [2] [nM] | SMILES | EC50 (Melanocortin receptor 4 [3]) [nM] | IC50 (Melanocortin receptor 5) [nM] | EC50 (Melanocortin receptor 3 [4]) [nM] | IC50 (Melanocortin receptor 3 [5]) [nM] | IC50 (Melanocortin receptor 4 [6]) [nM]
1 | 34.2 | 264 | CCCC[C@H](NC(C)=O)C(=O)N[C@@H]1CC(=O)NCCCC[C@@H](C(N)=O)NC(=O)[C@H](C)NC(=O)[C@@H](Cc2c[nH]c3ccccc23)NC(=O)[C@H](CCCNC(=N)N)NC(=O)[C@H](Cc2ccccc2)NC(=O)[C@H](Cc2cnc[nH]2)NC1=O |  |  |  |  | 
2 | 0.098 | 0.35 | CCCC[C@H](NC(C)=O)C(=O)N[C@H]1CC(=O)NCCCC[C@@H](C(N)=O)NC(=O)[C@H](C)NC(=O)C(Cc2c[nH]c3ccccc23)NC(=O)[C@H](CCCN=C(N)N)NC(=O)[C@@H](Cc2ccccc2)NC(=O)[C@H](Cc2c[nH]cn2)NC1=O (single isomer, unassigned) |  |  |  |  | 
3 | 0.3 | 0.91 | CCCC[C@H](NC(C)=O)C(=O)N[C@H]1CC(=O)NCCCC[C@@H](C(N)=O)NC(=O)[C@H](C)NC(=O)C(Cc2c[nH]c3ccccc23)NC(=O)[C@H](CCCN=C(N)N)NC(=O)[C@H](Cc2ccccc2)NC(=O)[C@H](Cc2c[nH]cn2)NC1=O (single isomer, unassigned) |  |  |  |  | 
4 | 2.61 | 22.4 | CCCC[C@H](NC(C)=O)C(=O)N[C@H]1CC(=O)NCCCC[C@@H](C(N)=O)NC(=O)[C@H](C)NC(=O)C(Cc2c[nH]c3ccccc23)NC(=O)[C@H](CCCN=C(N)N)NC(=O)C(Cc2ccccc2)NC(=O)[C@H](Cc2c[nH]cn2)NC1=O (single isomer, unassigned) |  |  |  |  | 

Row | SMILES | EC50 [1] [nM] | IC50 [2] [nM] | EC50 (Melanocortin receptor 4 [3]) [nM] | IC50 (Melanocortin receptor 5) [nM] | EC50 (Melanocortin receptor 3 [4]) [nM] | IC50 (Melanocortin receptor 3 [5]) [nM] | IC50 (Melanocortin receptor 4 [6]) [nM]
5 | CC(=O)N[C@@H]1CC(=O)NCCCC[C@H](C(N)=O)NC(=O)[C@@H](C)NC(=O)[C@H](Cc2c[nH]c3ccccc23)NC(=O)[C@@H](CCCNC(=N)N)NC(=O)[C@H](Cc2ccccc2)NC(=O)[C@@H](Cc2cnc[nH]2)NC1=O | 13.4 | 1.94 | 2.92 | > 1000 | 88.5 | 102 | 2.03
